# Results: PubChem BioAssay (NCI)
#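 96-well plates; 48 h exposure; 5 concentrations. Endpoints by linear interpolation between flanking doses. Not reached: highest tested concentration assigned. Here, GI50 denotes the concentration required for 50% inhibition of growth. TGI: total growth inhibition.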
# Experiments:
# Assay in all cases: NCI-60 cell line screen, 48 h
# SNB-75 CNS = test system: SNB-75 CNS
# M14 melanoma = test system: M14 melanoma
# NCI/ADR-RES ovarian = test system: NCI/ADR-RES ovarian
# BT-549 breast = test system: BT-549 breast
# CCRF-CEM leukemia = test system: CCRF-CEM leukemia
# SW-620 colon = test system: SW-620 colon
# MDA-MB-231 breast = test system: MDA-MB-231 breast
# SF-539 CNS = test system: SF-539 CNS
# MDA-MB-435 = test system: MDA-MB-435
# SK-MEL-2 melanoma = test system: SK-MEL-2 melanoma
# T-47D breast = test system: T-47D breast
# OVCAR-3 ovarian = test system: OVCAR-3 ovarian
# NCI-H522 lung = test system: NCI-H522 lung
# TK-10 renal = test system: TK-10 renal
# OVCAR-4 ovarian = test system: OVCAR-4 ovarian
# ACHN renal = test system: ACHN renal
# EKVX NSCLC = test system: EKVX NSCLC
# NCI-H226 lung = test system: NCI-H226 lung
# HCT-15 colon = test system: HCT-15 colon
# NCI-H23 lung = test system: NCI-H23 lung
# MCF7 breast = test system: MCF7 breast
# HOP-92 NSCLC = test system: HOP-92 NSCLC
# SF-295 CNS = test system: SF-295 CNS
# SK-MEL-5 melanoma = test system: SK-MEL-5 melanoma
# COLO 205 colon = test system: COLO 205 colon
# RPMI-8226 leukemia = test system: RPMI-8226 leukemia
# SR leukemia = test system: SR leukemia
# SK-MEL-28 melanoma = test system: SK-MEL-28 melanoma
# UACC-62 melanoma = test system: UACC-62 melanoma
# KM12 colon = test system: KM12 colon
# A549 NSCLC = test system: A549 NSCLC
# U251 CNS = test system: U251 CNS
# OVCAR-5 ovarian = test system: OVCAR-5 ovarian
# MOLT-4 leukemia = test system: MOLT-4 leukemia
# SNB-19 CNS = test system: SNB-19 CNS
# HOP-62 NSCLC = test system: HOP-62 NSCLC
# HT29 colon = test system: HT29 colon
# HL-60(TB) leukemia = test system: HL-60(TB) leukemia
# PC-3 prostate = test system: PC-3 prostate
# SK-OV-3 ovarian = test system: SK-OV-3 ovarian
# LOX IMVI melanoma = test system: LOX IMVI melanoma
# A498 renal = test system: A498 renal
# MALME-3M melanoma = test system: MALME-3M melanoma
# HS 578T breast = test system: HS 578T breast
# DU-145 prostate = test system: DU-145 prostate
# OVCAR-8 ovarian = test system: OVCAR-8 ovarian
# NCI-H460 lung = test system: NCI-H460 lung
# UO-31 renal = test system: UO-31 renal
# SF-268 CNS = test system: SF-268 CNS
# CAKI-1 renal = test system: CAKI-1 renal
# K-562 leukemia = test system: K-562 leukemia
# HCC-2998 colon = test system: HCC-2998 colon
# 786-0 renal = test system: 786-0 renal
# UACC-257 melanoma = test system: UACC-257 melanoma
# IGROV1 ovarian = test system: IGROV1 ovarian
# SN12C renal = test system: SN12C renal
# HCT-116 colon = test system: HCT-116 colon
smiles,measurement,setting,value
O=C(CCCCCCNC(=O)C(O)(O)C(F)(F)F)Nc1ncc(-c2ccc(Br)cc2)s1,GI50,SNB-75 CNS,1840 nM
same,TGI,SNB-75 CNS,> 31800 nM
same,GI50,M14 melanoma,1470 nM
same,TGI,M14 melanoma,> 31800 nM
same,GI50,NCI/ADR-RES ovarian,1350 nM
same,TGI,NCI/ADR-RES ovarian,7110 nM
same,GI50,BT-549 breast,851 nM
same,TGI,BT-549 breast,> 31800 nM
same,GI50,CCRF-CEM leukemia,1190 nM
same,TGI,CCRF-CEM leukemia,> 31800 nM
same,GI50,SW-620 colon,840 nM
same,TGI,SW-620 colon,3100 nM
same,GI50,MDA-MB-231 breast,607 nM
same,TGI,MDA-MB-231 breast,2000 nM
same,GI50,SF-539 CNS,1230 nM
same,TGI,SF-539 CNS,> 31800 nM
same,GI50,MDA-MB-435,1040 nM
same,TGI,MDA-MB-435,> 31800 nM
same,GI50,SK-MEL-2 melanoma,1360 nM
same,TGI,SK-MEL-2 melanoma,18800 nM
same,GI50,T-47D breast,808 nM
same,TGI,T-47D breast,25800 nM
same,GI50,OVCAR-3 ovarian,781 nM
same,TGI,OVCAR-3 ovarian,2910 nM
same,GI50,NCI-H522 lung,1450 nM
same,TGI,NCI-H522 lung,13800 nM
same,GI50,TK-10 renal,456 nM
same,TGI,TK-10 renal,> 31800 nM
same,GI50,OVCAR-4 ovarian,2480 nM
same,TGI,OVCAR-4 ovarian,> 31800 nM
same,GI50,ACHN renal,908 nM
same,TGI,ACHN renal,4830 nM
same,GI50,EKVX NSCLC,1330 nM
same,TGI,EKVX NSCLC,> 31800 nM
same,GI50,NCI-H226 lung,2400 nM
same,TGI,NCI-H226 lung,14400 nM
same,GI50,HCT-15 colon,1430 nM
same,TGI,HCT-15 colon,6280 nM
same,GI50,NCI-H23 lung,1210 nM
same,TGI,NCI-H23 lung,6560 nM
same,GI50,MCF7 breast,1300 nM
same,TGI,MCF7 breast,> 31800 nM
same,GI50,HOP-92 NSCLC,199 nM
same,TGI,HOP-92 NSCLC,1510 nM
same,GI50,SF-295 CNS,628 nM
same,TGI,SF-295 CNS,1510 nM
same,GI50,SK-MEL-5 melanoma,972 nM
same,TGI,SK-MEL-5 melanoma,3430 nM
same,GI50,COLO 205 colon,826 nM
same,TGI,COLO 205 colon,2260 nM
same,GI50,RPMI-8226 leukemia,452 nM
same,TGI,RPMI-8226 leukemia,> 31800 nM
same,GI50,SR leukemia,478 nM
same,TGI,SR leukemia,> 31800 nM
same,GI50,SK-MEL-28 melanoma,1120 nM
same,TGI,SK-MEL-28 melanoma,> 31800 nM
same,GI50,UACC-62 melanoma,675 nM
same,TGI,UACC-62 melanoma,2380 nM
same,GI50,KM12 colon,1250 nM
same,TGI,KM12 colon,6660 nM
same,GI50,A549 NSCLC,1600 nM
same,TGI,A549 NSCLC,> 31800 nM
same,GI50,U251 CNS,830 nM
same,TGI,U251 CNS,> 31800 nM
same,GI50,OVCAR-5 ovarian,686 nM
same,TGI,OVCAR-5 ovarian,5570 nM
same,GI50,MOLT-4 leukemia,831 nM
same,TGI,MOLT-4 leukemia,> 31800 nM
same,GI50,SNB-19 CNS,1320 nM
same,TGI,SNB-19 CNS,6610 nM
same,GI50,HOP-62 NSCLC,1230 nM
same,TGI,HOP-62 NSCLC,9100 nM
same,GI50,HT29 colon,735 nM
same,TGI,HT29 colon,> 31800 nM
same,GI50,HL-60(TB) leukemia,1620 nM
same,TGI,HL-60(TB) leukemia,> 31800 nM
same,GI50,PC-3 prostate,957 nM
same,TGI,PC-3 prostate,> 31800 nM
same,GI50,SK-OV-3 ovarian,1020 nM
same,TGI,SK-OV-3 ovarian,3100 nM
same,GI50,LOX IMVI melanoma,564 nM
same,TGI,LOX IMVI melanoma,1360 nM
same,GI50,A498 renal,130 nM
same,TGI,A498 renal,1650 nM
same,GI50,MALME-3M melanoma,913 nM
same,TGI,MALME-3M melanoma,> 31800 nM
same,GI50,HS 578T breast,1040 nM
same,TGI,HS 578T breast,> 31800 nM
same,GI50,DU-145 prostate,1110 nM
same,TGI,DU-145 prostate,6410 nM
same,GI50,OVCAR-8 ovarian,1370 nM
same,TGI,OVCAR-8 ovarian,> 31800 nM
same,GI50,NCI-H460 lung,890 nM
same,TGI,NCI-H460 lung,8200 nM
same,GI50,UO-31 renal,745 nM
same,TGI,UO-31 renal,4410 nM
same,GI50,SF-268 CNS,1290 nM
same,TGI,SF-268 CNS,12200 nM
same,GI50,CAKI-1 renal,1220 nM
same,TGI,CAKI-1 renal,16800 nM
same,GI50,K-562 leukemia,442 nM
same,TGI,K-562 leukemia,> 31800 nM
same,GI50,HCC-2998 colon,1360 nM
same,TGI,HCC-2998 colon,4820 nM
same,GI50,786-0 renal,1000 nM
same,TGI,786-0 renal,> 31800 nM
same,GI50,UACC-257 melanoma,1920 nM
same,TGI,UACC-257 melanoma,> 31800 nM
same,GI50,IGROV1 ovarian,846 nM
same,TGI,IGROV1 ovarian,4510 nM
same,GI50,SN12C renal,1250 nM
same,TGI,SN12C renal,18700 nM
same,GI50,HCT-116 colon,273 nM
same,TGI,HCT-116 colon,6730 nM
